The target of assay [1] is T1, Voltage-gated inwardly rectifying potassium channel KCNH2 (Homo sapiens, UniProt Q12809). In words: Inhibition of human voltage-gated potassium channel subunit Kv11.1 (ERG K+ channel) in open state. The class given is functional.
Assay [2] addresses T1, Voltage-gated inwardly rectifying potassium channel KCNH2. As to the kind of experiment: Inhibition of partially open human voltage-gated potassium channel subunit Kv11.1 (ERG K+ channel).

SMILES strings stand for the structures.

T1 sequence (Q12809 whole entry): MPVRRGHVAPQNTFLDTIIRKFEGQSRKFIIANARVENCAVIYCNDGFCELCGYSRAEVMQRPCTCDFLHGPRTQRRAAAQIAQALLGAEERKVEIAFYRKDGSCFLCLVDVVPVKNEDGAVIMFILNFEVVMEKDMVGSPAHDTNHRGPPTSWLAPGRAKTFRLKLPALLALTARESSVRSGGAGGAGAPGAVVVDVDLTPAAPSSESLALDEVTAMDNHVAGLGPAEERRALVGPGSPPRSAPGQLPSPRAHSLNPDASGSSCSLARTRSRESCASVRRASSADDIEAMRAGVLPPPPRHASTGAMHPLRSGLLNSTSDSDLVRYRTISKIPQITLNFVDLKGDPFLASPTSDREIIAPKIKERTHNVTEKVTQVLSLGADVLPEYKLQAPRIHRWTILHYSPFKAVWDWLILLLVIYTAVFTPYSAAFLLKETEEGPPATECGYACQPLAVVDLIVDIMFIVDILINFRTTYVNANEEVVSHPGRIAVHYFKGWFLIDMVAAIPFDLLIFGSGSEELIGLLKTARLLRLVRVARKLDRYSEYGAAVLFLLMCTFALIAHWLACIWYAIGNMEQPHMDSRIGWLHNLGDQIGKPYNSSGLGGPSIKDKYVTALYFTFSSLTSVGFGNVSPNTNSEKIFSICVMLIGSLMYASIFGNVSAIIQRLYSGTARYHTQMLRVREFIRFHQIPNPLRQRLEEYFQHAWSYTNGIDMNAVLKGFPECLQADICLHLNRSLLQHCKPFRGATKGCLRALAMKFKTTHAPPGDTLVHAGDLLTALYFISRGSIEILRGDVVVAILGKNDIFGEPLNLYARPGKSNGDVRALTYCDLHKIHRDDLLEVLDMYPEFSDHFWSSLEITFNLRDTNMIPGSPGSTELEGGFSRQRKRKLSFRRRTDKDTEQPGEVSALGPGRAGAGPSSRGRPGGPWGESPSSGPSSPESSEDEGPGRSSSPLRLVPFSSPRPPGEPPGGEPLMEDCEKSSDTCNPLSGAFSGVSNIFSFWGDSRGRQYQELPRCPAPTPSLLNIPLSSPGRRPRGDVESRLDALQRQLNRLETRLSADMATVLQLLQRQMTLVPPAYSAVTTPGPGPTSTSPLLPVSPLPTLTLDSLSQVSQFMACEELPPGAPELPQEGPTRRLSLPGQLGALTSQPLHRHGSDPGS

What is called IC50 is the concentration needed to halve the response being measured. Low readings indicate higher potency, high ones lower potency. `CN1CCN(CCCCN2C(=O)CN(/N=C/c3ccc(-c4ccc(Cl)cc4)o3)C2=O)CC1` gave an IC50 in assay [1] of 0.562 µM. Regarding `CN(c1nccc(=O)[nH]1)C1CCN(c2nc3ccccc3n2Cc2ccc(F)cc2)CC1` [MIZOLASTINE], 355 nM corresponded to half-maximal inhibition in assay [2] (IC50). Turning to `C[C@@H]1CN(c2c(F)c(N)c3c(=O)c(C(=O)O)cn(C4CC4)c3c2F)C[C@H](C)N1` [SPARFLOXACIN], the IC50 in assay [1] is 26.3 µM.

Source of the values: ChEMBL document CHEMBL1142050, “A two-state homology model of the hERG K+ channel: application to ligand binding” (Bioorg Med Chem Lett, 2005).
